Counter-ions that a name gives are not always drawn. Like-named read-outs stand apart in the source and are kept apart here. Each block holds one compound with its values, some of them ahead of it.
Key:
[1] = background statement on the free acid; cited from earlier work
[2] = Water solubility of etodolic acid and its salts; type: physicochemical; conditions: for solubility: water
Protocol: Etodolic acid was taken into consideration as a typical representative, particularly appreciated from the pharmacological point of view, of said derivatives and some typical salts thereof were prepared.
(§1) In order to avail oneself of a derivative usable in therapy, it is necessary, in fact, to obtain a highly soluble substance, also considering the doses of etodolic acid which have to be administered for getting an efficient therapeutic action (at least 200 mg twice a day in the adult).

[3] = Colour and stability of aqueous solutions of the salts (quickened ageing tests); type: physicochemical; conditions: for colour of the solutions: aqueous solutions
Protocol: as §1

[4] = pH of aqueous solutions of the sodium salt; type: physicochemical
Description: The 20% solution has a pH of 8.7, while a 7.3% solution has a pH of 7.8.

[5] = Stability in a 10% aqueous solution at various temperatures; type: physicochemical; conditions: for remaining at 720 h / remaining at 1440 h / remaining at 2160 h: water, read-out: Titre % (HPLC)
Description: (§2) The following tables No.1, 2 and 3 respectively show the stability data of sodium etodolate in aqueous solutions at 10% and 20% at various temperatures and again at 10% after sterilization in autoclave in a closed container.

[6] = Stability in a 20% aqueous solution at various temperatures; type: physicochemical; conditions: for remaining at 720 h / remaining at 1440 h / remaining at 2160 h: water, read-out: Titre % (HPLC)
Description: as §2

[7] = Stability after sterilization at 120°C in autoclave for 20 min; type: physicochemical; conditions: 10% aqueous solution
Description: as §2

[8] = after sterilization at 120°C in autoclave for 20 min, closed container

SMILES: CCc1cccc2c3c([nH]c12)C(CC)(CC(=O)O)OCC3 (centres unmarked) [etodolic acid, 1,8-diethyl-1,3,4,9-tetrahydropyran-[3,4-b] indol-1-acetic acid]
water solubility (in words) [1]: water-insoluble

solubility [2]: 2%
colour of the solutions [3]: deeply coloured
stability of the solutions ([3]; quickened ageing tests): not much stable
SMILES: CCc1cccc2c3c([nH]c12)C(CC)(CC(=O)O)OCC3 (centres unmarked) [potassium salt, reference compound]

water solubility (in words) [2]: easily soluble in water
solubility [2]: exceed 20 % by weight
solubility ([2]; water-soluble): > 200 mg/mL
pH ([4]; 7.3% solution): 7.8
pH ([4]; 20% solution): 8.7
Colour ([5]; 5°C, 1 month): unchanged
pH ([5]; 5°C, 1 month): 7.8
Colour ([5]; 5°C, 2 month): unchanged
pH ([5]; 5°C, 2 month): 7.8
Colour ([5]; 5°C, 3 month): unchanged
pH ([5]; 5°C, 3 month): 7.75
Colour ([5]; 25°C, 1 month): unchanged
pH ([5]; 25°C, 1 month): 7.8
Colour ([5]; 25°C, 2 month): unchanged
pH ([5]; 25°C, 2 month): 7.85
Colour ([5]; 25°C, 3 month): unchanged
pH ([5]; 25°C, 3 month): 7.8
Colour ([5]; 45°C, 1 month): unchanged
pH ([5]; 45°C, 1 month): 7.8
Colour ([5]; 45°C, 2 month): unchanged
pH ([5]; 45°C, 2 month): 7.8
Colour ([5]; 45°C, 3 month): unchanged
pH ([5]; 45°C, 3 month): 7.7
Colour ([5]; at starting point): pale yellow
Titre % (HPLC) ([5]; at starting point): 100%
pH ([5]; at starting point): 7.8
remaining at 720 h ([5]; 5°C, 1 month): 99%
remaining at 1440 h ([5]; 5°C, 2 month): 100%
remaining at 2160 h ([5]; 5°C, 3 month): 100%
remaining at 720 h ([5]; 25°C, 1 month): 100%
remaining at 1440 h ([5]; 25°C, 2 month): 100%
remaining at 2160 h ([5]; 25°C, 3 month): 99%
remaining at 720 h ([5]; 45°C, 1 month): 100%
remaining at 1440 h ([5]; 45°C, 2 month): 99%
remaining at 2160 h ([5]; 45°C, 3 month): 100%
Colour ([6]; 5°C, 1 month): unchanged
pH ([6]; 5°C, 1 month): 8.7
Colour ([6]; 5°C, 2 month): unchanged
pH ([6]; 5°C, 2 month): 8.7
Colour ([6]; 5°C, 3 month): unchanged
pH ([6]; 5°C, 3 month): 8.6
Colour ([6]; 25°C, 1 month): unchanged
pH ([6]; 25°C, 1 month): 8.7
Colour ([6]; 25°C, 2 month): unchanged
pH ([6]; 25°C, 2 month): 8.6
Colour ([6]; 25°C, 3 month): unchanged
pH ([6]; 25°C, 3 month): 8.7
Colour ([6]; 45°C, 1 month): unchanged
pH ([6]; 45°C, 1 month): 8.6
Colour ([6]; 45°C, 2 month): deep yellow
pH ([6]; 45°C, 2 month): 8.7
Colour ([6]; 45°C, 3 month): deep yellow
pH ([6]; 45°C, 3 month): 8.7
Colour ([6]; at starting point): pale yellow
Titre % (HPLC) ([6]; at starting point): 100%
pH ([6]; at starting point): 8.7
remaining at 720 h ([6]; 5°C, 1 month): 99%
remaining at 1440 h ([6]; 5°C, 2 month): 100%
remaining at 2160 h ([6]; 5°C, 3 month): 97%
remaining at 720 h ([6]; 25°C, 1 month): 100%
remaining at 1440 h ([6]; 25°C, 2 month): 99%
remaining at 2160 h ([6]; 25°C, 3 month): 100%
remaining at 720 h ([6]; 45°C, 1 month): 99%
remaining at 1440 h ([6]; 45°C, 2 month): 98%
remaining at 2160 h ([6]; 45°C, 3 month): 98%
Appearance of the solution [7, 8]: limpid
Colour of the solution [7, 8]: pale yellow
pH [7, 8]: 7.8
Appearance of the solution ([7]; at starting-point): limpid
Colour of the solution ([7]; at starting-point): pale yellow
Titre % (HPLC) ([7]; at starting-point): 100%
pH ([7]; at starting-point): 7.8
remaining at 20 min ([7]; water, after sterilization at 120°C in autoclave for 20 min, closed container, read-out: Titre (%) (HPLC)): 100%
colour of the solutions [3]: only fleebly yellow-coloured
stability of the solutions ([3]; during time): very stable during time
stability ([3]; most different storage and treatment conditions (summary of Tables 1-3)): quite stable
SMILES: CCc1cccc2c3c([nH]c12)C(CC)(CC(=O)O)OCC3 (centres unmarked) [sodium salt of etodolic acid, Sodium salt of etodolic acid]

Source: patent EP0221032A2, “Sodium salt of etodolic acid and process for its preparation” (priority 1985, dated 1987)
